Each block holds one compound with its values, some of them ahead of it.
What was measured:
[1] = target: T1, 3-hydroxy-3-methylglutaryl-coenzyme A reductase (Rattus norvegicus, UniProt P51639); experiment: Inhibitory activity against partially purified rat liver HMG-CoA reductase in vitro; 0.12-0.21
T1 sequence (P51639 whole entry): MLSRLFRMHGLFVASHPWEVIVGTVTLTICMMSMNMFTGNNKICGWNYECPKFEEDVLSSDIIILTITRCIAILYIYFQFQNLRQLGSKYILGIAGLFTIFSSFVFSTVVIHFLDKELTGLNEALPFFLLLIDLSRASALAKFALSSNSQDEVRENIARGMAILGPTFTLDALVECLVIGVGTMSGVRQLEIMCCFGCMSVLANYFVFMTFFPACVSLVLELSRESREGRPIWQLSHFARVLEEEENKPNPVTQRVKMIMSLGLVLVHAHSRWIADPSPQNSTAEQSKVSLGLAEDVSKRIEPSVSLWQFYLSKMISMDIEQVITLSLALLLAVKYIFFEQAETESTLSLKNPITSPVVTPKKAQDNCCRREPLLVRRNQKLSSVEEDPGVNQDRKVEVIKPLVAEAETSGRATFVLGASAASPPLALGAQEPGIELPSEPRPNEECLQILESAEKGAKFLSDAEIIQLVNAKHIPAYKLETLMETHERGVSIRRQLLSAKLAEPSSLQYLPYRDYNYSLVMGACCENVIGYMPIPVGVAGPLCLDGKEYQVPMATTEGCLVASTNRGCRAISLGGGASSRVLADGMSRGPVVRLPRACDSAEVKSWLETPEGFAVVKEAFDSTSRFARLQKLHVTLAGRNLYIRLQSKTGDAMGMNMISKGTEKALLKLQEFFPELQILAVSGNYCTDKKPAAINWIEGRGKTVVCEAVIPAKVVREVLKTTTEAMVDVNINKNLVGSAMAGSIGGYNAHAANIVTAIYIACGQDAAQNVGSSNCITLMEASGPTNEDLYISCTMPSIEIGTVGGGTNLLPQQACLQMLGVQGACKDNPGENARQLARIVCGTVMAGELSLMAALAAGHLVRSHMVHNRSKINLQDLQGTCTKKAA

[2] = system: HepG2; experiment: Tested for ability to inhibit incorporation of [14C]acetate into cholesterol in cultured human hepatoma (HEP-G2) cells; 0.31-2.4; type: functional, cell-based
[3] = system: HepG2; experiment: Tested for ability to inhibit incorporation of [14C]acetate into cholesterol in cultured human hepatoma (HEP-G2) cells; 1.3-2.3; type: functional, cell-based
[4] = target: T1, 3-hydroxy-3-methylglutaryl-coenzyme A reductase; experiment: Inhibitory activity against partially purified rat liver HMG-CoA reductase in vitro; 0.41-0.73
[5] = system: HepG2; experiment: Tested for ability to inhibit incorporation of [14C]acetate into cholesterol in cultured human hepatoma (HEP-G2) cells; 0.11-0.27; type: functional, cell-based
[6] = target: T1, 3-hydroxy-3-methylglutaryl-coenzyme A reductase; experiment: Inhibitory activity against partially purified rat liver HMG-CoA reductase in vitro; 0.047-0.098
[7] = target: T1, 3-hydroxy-3-methylglutaryl-coenzyme A reductase; experiment: Inhibitory activity against partially purified rat liver HMG-CoA reductase in vitro; 0.021-0.036
[8] = system: HepG2; experiment: Tested for ability to inhibit incorporation of [14C]acetate into cholesterol in cultured human hepatoma (HEP-G2) cells; 0.26-0.80; type: functional, cell-based
[9] = target: T1, 3-hydroxy-3-methylglutaryl-coenzyme A reductase; experiment: Inhibitory activity against partially purified rat liver HMG-CoA reductase in vitro; 1.2-3.3
[10] = system: HepG2; experiment: Tested for ability to inhibit incorporation of [14C]acetate into cholesterol in cultured human hepatoma (HEP-G2) cells; 0.73-91; type: functional, cell-based
[11] = target: T1, 3-hydroxy-3-methylglutaryl-coenzyme A reductase; experiment: Inhibitory activity against partially purified rat liver HMG-CoA reductase in vitro; 0.73-10
[12] = target: T1, 3-hydroxy-3-methylglutaryl-coenzyme A reductase; experiment: Inhibitory activity against partially purified rat liver HMG-CoA reductase in vitro; 1.9-5.3
[13] = target: T1, 3-hydroxy-3-methylglutaryl-coenzyme A reductase; experiment: Inhibitory activity against partially purified rat liver HMG-CoA reductase in vitro; 2.1-54
[14] = system: HepG2; experiment: Tested for ability to inhibit incorporation of [14C]acetate into cholesterol in cultured human hepatoma (HEP-G2) cells; 0.053-0.12; type: functional, cell-based
[15] = target: T1, 3-hydroxy-3-methylglutaryl-coenzyme A reductase; experiment: Inhibitory activity against partially purified rat liver HMG-CoA reductase in vitro; 0.038-0.18
[16] = system: HepG2; experiment: Tested for ability to inhibit incorporation of [14C]acetate into cholesterol in cultured human hepatoma (HEP-G2) cells; 0.70-1.4; type: functional, cell-based
[17] = target: T1, 3-hydroxy-3-methylglutaryl-coenzyme A reductase; experiment: Inhibitory activity against partially purified rat liver HMG-CoA reductase in vitro; 1.8-3.7
[18] = target: T1, 3-hydroxy-3-methylglutaryl-coenzyme A reductase; experiment: Inhibitory activity against partially purified rat liver HMG-CoA reductase in vitro; 0.0050-0.016
[19] = system: HepG2; experiment: Tested for ability to inhibit incorporation of [14C]acetate into cholesterol in cultured human hepatoma (HEP-G2) cells; 0.22-0.48; type: functional, cell-based
[20] = target: T1, 3-hydroxy-3-methylglutaryl-coenzyme A reductase; experiment: Inhibitory activity against partially purified rat liver HMG-CoA reductase in vitro; 0.015-0.51
[21] = system: HepG2; experiment: Tested for ability to inhibit incorporation of [14C]acetate into cholesterol in cultured human hepatoma (HEP-G2) cells; 0.15-1.7; type: functional, cell-based
[22] = target: T1, 3-hydroxy-3-methylglutaryl-coenzyme A reductase; experiment: Inhibitory activity against partially purified rat liver HMG-CoA reductase in vitro; 0.23-0.71
[23] = system: HepG2; experiment: Tested for ability to inhibit incorporation of [14C]acetate into cholesterol in cultured human hepatoma (HEP-G2) cells; 0.061-0.10; type: functional, cell-based

SMILES: O=C(O)C[C@H](O)C[C@H](O)/C=C/c1c2c(nn1-c1ccc(F)cc1)C(Cc1cccc3ccccc13)CCC2 (some centres undefined)
IC50 [7]: 28 nM | IC50 [8]: 460 nM

SMILES: CCC1CCCc2c1nn(-c1ccc(F)cc1)c2/C=C/[C@@H](O)C[C@@H](O)CC(=O)O (some centres undefined)
IC50 [9]: 2000 nM

SMILES: O=C(O)C[C@H](O)C[C@H](O)/C=C/c1c2c(nn1-c1ccc(F)cc1)C(c1ccccc1)CCC2 (some centres undefined)
IC50 [10]: 8.1 µM | IC50 [11]: 2800 nM

SMILES: CCC(C)C1CCCc2c1nn(-c1ccc(F)cc1)c2/C=C/[C@@H](O)C[C@@H](O)CC(=O)O (some centres undefined)
IC50 [12]: 3.2 µM

SMILES: O=C(O)C[C@H](O)C[C@H](O)/C=C/c1c2c(nn1-c1ccc(F)cc1)CCC2
IC50 [13]: 11 µM

SMILES: CC(C)n1c(/C=C/C(O)CC(O)CC(=O)O)c(-c2ccc(F)cc2)c2ccccc21 (centres undefined) [FLUVASTATIN SODIUM]
IC50 [14]: 79 nM

SMILES: O=C(O)C[C@H](O)C[C@H](O)/C=C/c1c2c(nn1-c1ccc(F)cc1)C(C/C=C/c1ccccc1)CCC2 (some centres undefined)
IC50 [15]: 82 nM | IC50 [16]: 1000 nM

SMILES: O=C(O)C[C@H](O)C[C@H](O)/C=C/c1c2c(nn1-c1ccc(F)cc1)-c1ccccc1CCC2
IC50 [17]: 2600 nM

SMILES: O=C(O)C[C@H](O)C[C@H](O)/C=C/c1c2c(nn1-c1ccc(F)cc1)C(Cc1ccc3ccccc3c1)CCC2 (some centres undefined)
IC50 [18]: 9 nM | IC50 [19]: 330 nM

SMILES: CC[C@H](C)C(=O)O[C@H]1C[C@@H](C)C=C2C=C[C@H](C)[C@H](CC[C@@H]3C[C@@H](O)CC(=O)O3)[C@H]21 [LOVASTATIN]
IC50 [22]: 400 nM | IC50 [23]: 79 nM

More lines, now with the values ahead:

IC50 [1]: 160 nM | IC50 [2]: 870 nM
SMILES: O=C(O)C[C@H](O)C[C@H](O)/C=C/c1c2c(nn1-c1ccc(F)cc1)C(CCCc1ccccc1)CCC2 (some centres undefined)

IC50 [3]: 1700 nM | IC50 [4]: 540 nM
SMILES: O=C(O)C[C@H](O)C[C@H](O)/C=C/c1c2c(nn1-c1ccc(F)cc1)C(CCc1ccccc1)CCC2 (some centres undefined)

IC50 [5]: 170 nM | IC50 [6]: 68 nM
SMILES: O=C(O)C[C@H](O)C[C@H](O)/C=C/c1c2c(nn1-c1ccc(F)cc1)C(Cc1ccccc1)CCC2 (some centres undefined)

IC50 [20]: 28 nM | IC50 [21]: 500 nM
SMILES: COc1ccc(CC2CCCc3c2nn(-c2ccc(F)cc2)c3/C=C/[C@@H](O)C[C@@H](O)CC(=O)O)cc1 (some centres undefined)

IC50 [12]: 3.4 µM
SMILES: CCCC1CCCc2c1nn(-c1ccc(F)cc1)c2/C=C/[C@@H](O)C[C@@H](O)CC(=O)O (some centres undefined)
